Laboratory results reported in publication PMC8119466, “A screen of FDA-approved drugs identifies inhibitors of protein tyrosine phosphatase 4A3 (PTP4A3 or PRL-3)” (Scientific Reports, 2021).
Like-named read-outs stand apart in the source and are kept apart here.

Columns and labels:
[1] = target: T1, PTP1B (Homo sapiens, UniProt P18031); assay: PhosphataseProfiler (Eurofins) selectivity panel; assay type: biochemical; conditions: 25µM
T1 construct: purchased Eurofins PP260

[2] = target: T2, PP1alpha (Homo sapiens, UniProt P62136); assay: PhosphataseProfiler (Eurofins) selectivity panel; assay type: biochemical; conditions: 25µM
T2 construct: purchased Eurofins PP260
T2 sequence (P62136 whole entry): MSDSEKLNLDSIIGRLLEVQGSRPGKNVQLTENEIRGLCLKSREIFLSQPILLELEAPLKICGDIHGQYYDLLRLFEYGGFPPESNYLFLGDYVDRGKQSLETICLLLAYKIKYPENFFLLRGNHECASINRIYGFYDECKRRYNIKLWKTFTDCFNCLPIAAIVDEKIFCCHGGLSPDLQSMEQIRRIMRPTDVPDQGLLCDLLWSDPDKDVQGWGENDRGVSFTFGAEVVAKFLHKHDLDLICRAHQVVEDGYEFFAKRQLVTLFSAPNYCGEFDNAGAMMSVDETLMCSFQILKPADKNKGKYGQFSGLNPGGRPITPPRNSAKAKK

[3] = tested on: HEK293T cells; assay: MTT viability assay; assay type: cell-based, human; conditions: 16 h
Protocol: Cells were seeded into duplicate wells of a 96 well plate at a density of 2 × 10^4 cells per well and allowed to recover for 24 h. Cells were then treated with drug or DMSO at the indicated concentrations for 16 h. Following drug treatment, 10 μL of 5 mg/ml MTT (Sigma, M5655) was added to each well and cells were incubated for 4 h. Finally, media were removed, and the dye was solubilized in 100 μL of 0.1 M HCl in isopropanol. Absorbance was measured at 570 nm and 690 nm with final absorbance measurements as 570–690 nm.

[4] = tested on: SW480 cells; assay: Scratch (migration) assay, SW480; assay type: cell-based, human; conditions: 24 h, 100 µM Salirasib or 25 µM Candesartan, vs DMSO
Protocol: (§1) Cells were seeded into duplicate wells of a 48 well plates at a density of 2 × 10^5 cells per well for HEK293T or 4 × 10^5 for HCT116 and SW480. Cells were recovered overnight and were scratched using a p20 pipette tip the following day. Compounds were added at the concentrations indicated. Images were obtained immediately after the scratch and after a 24 h incubation with the drug on an Evos FL inverted microscope (ThermoFisher). The area within the scratch was calculated using ImageJ. The area migrated was measured as the difference in wound area at 0 h and 24 h and the percent change in migration was calculated by dividing the difference in wound area of treatment by the difference in wound area of the control.

[5] = target: T3, recombinant PRL-1 (Homo sapiens, UniProt Q93096); assay: In vitro phosphatase assay (DiFMUP hydrolysis), PRL-1; assay type: biochemical; conditions: for IC50: DiFMUP at KM, read-out: Calculated IC50, PRL-1 phosphatase activity; for % Phosphatase Activity (compared to DMSO) PRL-1: FDA-approved drug screen
T3 construct: 6xHis (N, cleaved yes); made in house; host or cells: E. coli One Shot BL21 Star
T3 sequence (Q93096 1-173): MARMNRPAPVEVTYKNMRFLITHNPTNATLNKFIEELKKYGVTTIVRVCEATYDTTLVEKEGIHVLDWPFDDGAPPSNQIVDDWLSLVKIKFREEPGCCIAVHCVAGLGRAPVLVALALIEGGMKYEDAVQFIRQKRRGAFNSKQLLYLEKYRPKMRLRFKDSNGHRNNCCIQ

[6] = target: T4, recombinant PRL-2 (Homo sapiens, UniProt Q12974); assay: In vitro phosphatase assay (DiFMUP hydrolysis), PRL-2; assay type: biochemical; conditions: for % Phosphatase Activity (compared to DMSO) PRL-2: FDA-approved drug screen;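 for all read-outs here: PRL-2 activity read as DiFMUP hydrolysis after 20 min at room temperature with drug, enzyme first pre-reduced at 4 °C for 20 min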
T4 construct: 6xHis (N, cleaved yes); made in house; host or cells: E. coli One Shot BL21 Star
T4 sequence (Q12974 1-167): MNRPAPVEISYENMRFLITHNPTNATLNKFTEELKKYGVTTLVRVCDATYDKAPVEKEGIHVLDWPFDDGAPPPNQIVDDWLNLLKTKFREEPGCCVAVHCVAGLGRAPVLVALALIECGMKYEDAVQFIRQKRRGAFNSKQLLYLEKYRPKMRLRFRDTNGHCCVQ

[7] = tested on: HCT116 cells; assay: Scratch (migration) assay, HCT116; assay type: cell-based, human; conditions: 24 h, 100 µM Salirasib or 25 µM Candesartan
Protocol: pENTR-PRL-3 (previously described[51]) was cloned into pLKO-CMV-puro using LR clonase (Thermofisher, 11,791,019) according to manufacturer’s directions. pLKO-CMV empty vector (EV) and pLKO-CMV:PRL-3 were transfected into HEK293T using Lipofectamine 3000 (ThermoFisher, L3000015) according to manufacturer’s protocol. Transfected cells were selected with 1 µg/mL puromycin in complete media to establish the cell line, then were maintained under 0.5 µg/mL puromycin in complete media. For PRL-3 knockdown, pLKO.1-scrambled shRNA and pLKO.1-PRL-3 shRNA[51] plasmids were transfected into HCT116 cells using Lipofectamine 3000 (Thermo Fisher, Cat # L3000015) according to the manufacturer’s directions. Cells were selected for 48 h in 1 µg/mL puromycin before use in assays.
as §1

[8] = target: T5, SHP1 (Homo sapiens, UniProt P29350); assay: PhosphataseProfiler (Eurofins) selectivity panel; assay type: biochemical; conditions: SHP1, 25µM
T5 construct: purchased Eurofins PP260
T5 sequence (P29350 whole entry): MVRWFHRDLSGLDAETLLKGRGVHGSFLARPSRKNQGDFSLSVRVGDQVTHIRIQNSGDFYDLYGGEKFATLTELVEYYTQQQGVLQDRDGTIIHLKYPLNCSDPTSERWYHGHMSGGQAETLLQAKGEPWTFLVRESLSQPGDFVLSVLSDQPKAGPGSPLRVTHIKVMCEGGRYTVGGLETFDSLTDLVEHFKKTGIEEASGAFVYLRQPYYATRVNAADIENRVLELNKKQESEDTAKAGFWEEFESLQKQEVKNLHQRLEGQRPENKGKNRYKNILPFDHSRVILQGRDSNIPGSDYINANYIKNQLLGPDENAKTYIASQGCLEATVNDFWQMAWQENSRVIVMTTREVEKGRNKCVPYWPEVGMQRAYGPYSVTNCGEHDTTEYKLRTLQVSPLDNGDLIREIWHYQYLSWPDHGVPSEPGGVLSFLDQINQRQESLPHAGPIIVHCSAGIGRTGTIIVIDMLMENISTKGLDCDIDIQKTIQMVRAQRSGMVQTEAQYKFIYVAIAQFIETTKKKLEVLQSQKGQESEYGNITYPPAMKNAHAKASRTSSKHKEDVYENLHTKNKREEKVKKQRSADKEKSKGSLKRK

[9] = target: T6, Lambda PP (Escherichia phage lambda, UniProt P03772); assay: PhosphataseProfiler (Eurofins) selectivity panel; assay type: biochemical; conditions: 25µM
T6 construct: purchased Eurofins PP260
T6 sequence (P03772 whole entry): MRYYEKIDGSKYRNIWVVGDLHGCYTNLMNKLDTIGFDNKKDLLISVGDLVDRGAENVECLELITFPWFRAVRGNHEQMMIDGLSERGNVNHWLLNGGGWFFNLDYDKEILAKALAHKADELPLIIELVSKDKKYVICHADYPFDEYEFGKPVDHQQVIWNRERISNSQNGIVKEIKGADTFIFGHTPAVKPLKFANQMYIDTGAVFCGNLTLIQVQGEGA
Protocol: (§2) In 384 well plates, 2.5 μM recombinant PRL-1, PRL-2, or PRL-3 was combined with DiFUMP (Life Technologies, Cat # E12020) at the KM of each protein in reaction buffer (20 mM Tris–Cl, pH 7.5, 150 mM NaCl, 10 mM DTT) as previously reported. Briefly, protein was diluted in reaction buffer and allowed to incubate at 4 °C for 20 min to allow for full reduction of the active site. DiFMUP, drug, and protein were added, and plates were incubated for 20 min at room temperature. Fluorescence intensities were measured on a Cytation 5 plate reader (Biotek) at an EX:360 nm and EM:460 nm. Data were normalized to vehicle control and IC50 values were calculated on GraphPad Prism version 8. Inhibition selectivity for PRLs over a panel of other phosphatases was determined using PhosphataseProfiler (Eurofins, Cat # PP260).

[10] = tested on: PP2A; assay: PhosphataseProfiler (Eurofins) selectivity panel; assay type: biochemical; conditions: 25µM
Protocol: as §2

[11] = target: T7, CD45 (Homo sapiens, UniProt P08575); assay: PhosphataseProfiler (Eurofins) selectivity panel; assay type: biochemical; conditions: CD45, 25µM
T7 construct: purchased Eurofins PP260
T7 sequence (P08575 26-1306): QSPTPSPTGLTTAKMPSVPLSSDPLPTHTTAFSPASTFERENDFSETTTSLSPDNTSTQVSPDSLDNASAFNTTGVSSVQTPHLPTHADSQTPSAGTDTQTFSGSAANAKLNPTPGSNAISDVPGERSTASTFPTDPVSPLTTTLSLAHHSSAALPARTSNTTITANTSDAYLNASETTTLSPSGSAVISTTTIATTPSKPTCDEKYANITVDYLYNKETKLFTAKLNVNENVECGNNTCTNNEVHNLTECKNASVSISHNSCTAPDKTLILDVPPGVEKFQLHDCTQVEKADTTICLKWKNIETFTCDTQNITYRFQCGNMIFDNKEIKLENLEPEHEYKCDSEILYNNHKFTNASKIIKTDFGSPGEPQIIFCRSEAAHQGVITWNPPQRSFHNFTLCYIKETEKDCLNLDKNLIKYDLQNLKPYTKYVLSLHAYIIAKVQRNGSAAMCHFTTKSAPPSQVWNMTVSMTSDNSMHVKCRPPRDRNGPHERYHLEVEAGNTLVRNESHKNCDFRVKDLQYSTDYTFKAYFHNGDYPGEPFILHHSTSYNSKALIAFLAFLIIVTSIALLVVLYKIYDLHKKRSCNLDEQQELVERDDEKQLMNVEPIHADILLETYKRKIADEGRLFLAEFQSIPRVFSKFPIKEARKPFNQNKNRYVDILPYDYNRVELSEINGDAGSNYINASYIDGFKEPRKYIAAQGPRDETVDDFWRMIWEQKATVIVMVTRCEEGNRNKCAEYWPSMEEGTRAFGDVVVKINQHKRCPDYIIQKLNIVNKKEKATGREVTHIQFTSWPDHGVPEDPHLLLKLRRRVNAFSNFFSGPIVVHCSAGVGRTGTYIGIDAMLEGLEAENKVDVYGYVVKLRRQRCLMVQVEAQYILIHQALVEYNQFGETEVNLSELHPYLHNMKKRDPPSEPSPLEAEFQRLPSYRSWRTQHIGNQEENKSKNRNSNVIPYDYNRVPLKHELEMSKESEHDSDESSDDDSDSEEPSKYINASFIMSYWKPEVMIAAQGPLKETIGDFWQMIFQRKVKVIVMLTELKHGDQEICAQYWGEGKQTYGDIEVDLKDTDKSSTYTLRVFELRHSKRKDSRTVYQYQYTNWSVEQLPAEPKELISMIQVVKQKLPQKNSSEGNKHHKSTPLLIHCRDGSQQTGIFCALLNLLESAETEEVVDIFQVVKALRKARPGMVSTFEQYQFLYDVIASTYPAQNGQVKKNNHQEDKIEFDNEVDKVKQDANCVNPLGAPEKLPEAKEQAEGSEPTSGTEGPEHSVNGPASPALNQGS
Protocol: as §2

[12] = target: T8, PTPMEG2 (Homo sapiens, UniProt P43378); assay: PhosphataseProfiler (Eurofins) selectivity panel; assay type: biochemical; conditions: PTPMEG2, 25µM
T8 construct: purchased Eurofins PP260
T8 sequence (P43378 whole entry): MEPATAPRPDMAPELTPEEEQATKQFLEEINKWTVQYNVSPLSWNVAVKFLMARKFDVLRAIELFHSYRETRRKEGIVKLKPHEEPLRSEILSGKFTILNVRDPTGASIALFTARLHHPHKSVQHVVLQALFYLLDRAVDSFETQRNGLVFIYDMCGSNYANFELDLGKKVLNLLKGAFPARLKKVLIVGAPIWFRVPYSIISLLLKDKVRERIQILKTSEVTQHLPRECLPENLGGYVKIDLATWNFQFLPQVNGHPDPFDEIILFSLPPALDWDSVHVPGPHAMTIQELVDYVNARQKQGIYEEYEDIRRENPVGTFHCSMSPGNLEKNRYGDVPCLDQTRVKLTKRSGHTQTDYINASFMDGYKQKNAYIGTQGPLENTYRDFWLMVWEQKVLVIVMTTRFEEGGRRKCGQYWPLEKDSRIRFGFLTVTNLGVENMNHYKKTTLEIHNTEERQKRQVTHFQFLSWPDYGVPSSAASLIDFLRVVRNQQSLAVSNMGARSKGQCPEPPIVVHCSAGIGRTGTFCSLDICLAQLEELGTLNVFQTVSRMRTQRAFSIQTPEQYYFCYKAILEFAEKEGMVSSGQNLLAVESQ
Protocol: as §2

[13] = target: T9, PTPMEG (Homo sapiens, UniProt P29074); assay: PhosphataseProfiler (Eurofins) selectivity panel; assay type: biochemical; conditions: 25µM
T9 construct: purchased Eurofins PP260
Protocol: as §2

[14] = target: T10, PTPN22 (Homo sapiens, UniProt Q9Y2R2); assay: PhosphataseProfiler (Eurofins) selectivity panel; assay type: biochemical; conditions: PTPN22, 25µM
T10 construct: purchased Eurofins PP260

[15] = tested on: HEK293T cells; assay: Click-IT Edu cell proliferation assay, HEK293T; assay type: cell-based, human; conditions: 100 µM Salirasib or 25 µM Candesartan, 24 and 48 hr
Protocol: The cell proliferation assay was performed using the Click-IT Edu cell proliferation kit from (Thermo Fisher, Cat # C10419) according to the manufacturer’s protocol. Briefly, HEK293T, HCT116 and SW480 cells were plated in 6 well dishes at 4 × 10^5 cell seeding density and treated with DMSO, Candesartan and Salirasib at the indicated concentrations. Edu was added 2 h prior to collecting the cells at 24 h and 48 h time points and the assay was performed according to the instructions from the manual. Flow cytometry with AlexaFluor647 conjugated azide dye was used to determine the cellular proliferation and DAPI was used for the DNA content.

[16] = target: T11, VHR (Homo sapiens, UniProt P51452); assay: PhosphataseProfiler (Eurofins) selectivity panel; assay type: biochemical; conditions: 25µM
T11 construct: purchased Eurofins PP260
T11 sequence (P51452 whole entry): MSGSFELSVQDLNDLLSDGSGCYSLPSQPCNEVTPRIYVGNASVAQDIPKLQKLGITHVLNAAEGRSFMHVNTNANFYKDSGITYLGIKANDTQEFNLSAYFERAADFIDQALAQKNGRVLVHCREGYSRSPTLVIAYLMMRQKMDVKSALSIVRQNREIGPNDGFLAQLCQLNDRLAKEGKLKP

[17] = target: T12, ACP1 (LMPTP-B) (Homo sapiens, UniProt P24666); assay: PhosphataseProfiler (Eurofins) selectivity panel; assay type: biochemical; conditions: 25µM
T12 construct: purchased Eurofins PP260
T12 sequence (P24666 1-158 isoform P24666-2): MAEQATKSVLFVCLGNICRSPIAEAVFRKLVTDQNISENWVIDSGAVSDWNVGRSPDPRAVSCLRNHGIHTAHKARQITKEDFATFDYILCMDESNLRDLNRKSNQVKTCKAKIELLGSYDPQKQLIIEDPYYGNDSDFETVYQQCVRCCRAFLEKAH
Protocol: Briefly, protein was diluted in reaction buffer and allowed to incubate at 4 °C for 20 min to allow for full reduction of the active site. DiFMUP, drug, and protein were added, and plates were incubated for 20 min at room temperature. Fluorescence intensities were measured on a Cytation 5 plate reader (Biotek) at an EX:360 nm and EM:460 nm. […] Inhibition selectivity for PRLs over a panel of other phosphatases was determined using PhosphataseProfiler (Eurofins, Cat # PP260).

[18] = target: T13, SHP2 (Homo sapiens, UniProt Q06124); assay: PhosphataseProfiler (Eurofins) selectivity panel; assay type: biochemical; conditions: SHP2, 25µM
T13 construct: purchased Eurofins PP260
T13 sequence (Q06124 whole entry): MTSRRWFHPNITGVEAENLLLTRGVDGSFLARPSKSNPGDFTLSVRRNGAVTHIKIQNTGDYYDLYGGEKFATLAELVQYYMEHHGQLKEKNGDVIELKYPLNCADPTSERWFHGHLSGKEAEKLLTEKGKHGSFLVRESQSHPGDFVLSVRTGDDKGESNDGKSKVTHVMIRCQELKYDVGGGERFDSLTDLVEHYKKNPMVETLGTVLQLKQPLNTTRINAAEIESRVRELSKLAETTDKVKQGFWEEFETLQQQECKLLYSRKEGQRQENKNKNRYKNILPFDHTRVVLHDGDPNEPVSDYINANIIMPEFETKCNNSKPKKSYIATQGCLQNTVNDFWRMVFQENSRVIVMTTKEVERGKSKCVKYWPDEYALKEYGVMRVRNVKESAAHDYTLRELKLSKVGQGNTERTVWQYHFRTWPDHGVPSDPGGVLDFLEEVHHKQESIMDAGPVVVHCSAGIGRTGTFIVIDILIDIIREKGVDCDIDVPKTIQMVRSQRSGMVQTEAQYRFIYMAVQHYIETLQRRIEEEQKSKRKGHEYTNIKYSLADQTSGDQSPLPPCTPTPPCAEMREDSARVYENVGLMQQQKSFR

[19] = listed as Candesartan Cilexetil

T1 sequence (P18031 whole entry): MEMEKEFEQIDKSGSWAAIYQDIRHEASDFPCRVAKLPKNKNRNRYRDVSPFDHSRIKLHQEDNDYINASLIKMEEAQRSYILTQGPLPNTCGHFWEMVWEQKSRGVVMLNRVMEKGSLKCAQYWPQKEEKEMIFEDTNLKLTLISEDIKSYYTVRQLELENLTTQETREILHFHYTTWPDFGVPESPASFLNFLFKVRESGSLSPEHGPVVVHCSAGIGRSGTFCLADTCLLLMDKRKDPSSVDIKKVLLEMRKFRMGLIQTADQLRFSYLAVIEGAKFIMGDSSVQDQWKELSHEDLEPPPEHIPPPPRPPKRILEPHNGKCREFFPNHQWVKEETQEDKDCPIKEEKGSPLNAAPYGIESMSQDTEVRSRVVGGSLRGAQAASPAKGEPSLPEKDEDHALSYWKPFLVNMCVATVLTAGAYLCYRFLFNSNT

SMILES	Percent Phosphatase Activity (compared to DMSO) [1] [%]	Percent Phosphatase Activity (compared to DMSO) [2] [%]	% Phosphatase Activity (compared to DMSO) PRL-1 [5] [%]	% Phosphatase Activity (compared to DMSO) PRL-2 [6] [%]	migration of HCT116 cells with PRL-3 knock-down (PRL-3 shRNA) [7]	Percent Phosphatase Activity (compared to DMSO) [8] [%]	Percent Phosphatase Activity (compared to DMSO) [9] [%]	Percent Phosphatase Activity (compared to DMSO) [10] [%]	Percent Phosphatase Activity (compared to DMSO) [11] [%]	Percent Phosphatase Activity (compared to DMSO) [12] [%]	Percent Phosphatase Activity (compared to DMSO) [13] [%]	Percent Phosphatase Activity (compared to DMSO) [14] [%]	cell cycle (EdU staining) [15]	Percent Phosphatase Activity (compared to DMSO) [16] [%]	Percent Phosphatase Activity (compared to DMSO) [17] [%]	Percent Phosphatase Activity (compared to DMSO) [18] [%]	further results
CC(C)=CCC/C(C)=C/CC/C(C)=C/CSc1ccccc1C(=O)O [Salirasib]	114	104	26	6	significantly reduced migration	113	112	107	102	102	107	129	did not significantly impact	97	106	103	viability (MTT) ([3]; drug doses 1 to 100 µM, normalized to 1% DMSO): no effect on the viability; inhibition at 100 µM ([4]; Homo sapiens, SW480): > 30%; IC50 ([5]; 2.5 µM protein): 53 ± 5 µM; inhibition at 100 µM ([7]; Homo sapiens, HCT-116, vs DMSO): > 30%
CCOc1nc2cccc(C(=O)O)c2n1Cc1ccc(-c2ccccc2-c2nnn[nH]2)cc1 [Candesartan]	109	105	106	92	no additional impact on migration	116	107	110	100	97	109	136	did not significantly impact	87	113	104	viability (MTT) ([3]; 100 µM): viability dropped significantly; viability (MTT) ([3]; up to 50 µM): insignificant effect on viability; inhibition of migration of SW480 cells [4]: > 30%; % Phosphatase Activity (compared to DMSO) PRL-1 [5, 19]: 6.33%; IC50 ([5]; […] protein): 69 ± 8 µM; % Phosphatase Activity (compared to DMSO) PRL-2 [6, 19]: 13%; IC50 ([6]; […] protein, DiFMUP at KM, read-out: Calculated IC50, PRL-2 phosphatase activity): 80 ± 15 µM; inhibition of migration of HCT116 cells ([7]; vs DMSO): > 30%
